Test results published in patent publication US8759384B2, “Oxo-imidazolyl compounds” (priority 2008, dated 2014).

Experiments:
[1] = test system: Staphylococcus aureus MRSA; test: microbe, parasite or virus in culture; assay type: cell-based; settings: Conc. 3 μM, read-out: Inhibitive activity MRSA (% inhibition of growth)
B. anthracis ΔSterne = test: microbe, parasite or virus in culture; assay type: cell-based; settings: Bacillus anthracis; Conc. 3 μM; read-out: Inhibitive activity Anthracis (% inhibition of growth)

## O=C(O)C(Cc1ccccc1)N1C(=O)/C(=C\c2ccc(-c3ccc(Cl)c(Cl)c3)o2)NC1=S (centres unmarked) [EX. 6, 2-(4-((5-(3,4-Dichlorophenyl)furan-2-yl)methylene)-5-oxo-2-thioxoimidazolidin-1-yl)-3-phenylpropanoic acid]
[1]
  inhibition at 3 µM: -3.72%

## O=C(O)C(Cc1ccccc1)N1C(=O)/C(=C\c2ccc(-c3ccc(Br)cc3)s2)NC1=S (centres unmarked) [EX. 7, 2-(4-((5-(4-Bromophenyl)thiophen-2-yl)methylene)-5-oxo-2-thioxoimidazolidin-1-yl)-3-phenylpropanoic acid]
B. anthracis ΔSterne
  inhibition at 3 µM: 67.9%
